Assay [1] has as its system U-937. Briefly: Inhibition of PALP-fussed actin production in human U937 cells. In kind it is functional, cell-based.
Assay [2] relates to U-937. Briefly: Inhibition of PALP-fussed TNFalpha production in human U937 cells. The class given is functional, cell-based.
The test system of assay [3] is Mus musculus. Briefly: Antiinflammatory activity in iv dosed mouse assessed as inhibition of LPS-stimulated TNFalpha production. In kind it is functional.

The source made the active and inactive calls. The rule behind the calls is not given here. Where only a bound is given, the exact number is not on record here.

As usually defined, the IC50 is the midpoint of a concentration-inhibition curve. Low values mean higher potency, high ones lower potency. For `CCCCOc1cc(O)c2c(c1)/C=C/C[C@H](O)[C@H](O)C(=O)/C=C\[C@@H](C)[C@H](C)OC2=O`, the results for the 50% inhibitory concentration (IC50) in assay [1] and in assay [2] were > 10000 nM and 325 nM, respectively.
The matching figures for `COc1cc(O)c2c(c1Br)/C=C/C[C@H](O)[C@H](O)C(=O)/C=C\[C@@H](C)[C@H](C)OC2=O`: > 10000 nM and 804 nM.
One may read the ED50 as the dose at which the effect has come halfway, by size or by number of responders. On to `CCOc1cc(O)c2c(c1)/C=C/C[C@H](O)[C@H](O)C(=O)/C=C\[C@@H](C)[C@H](C)OC2=O`, for which, in assay [3], the ED50 stood at 12 mg/kg. Moreover, the figures for the concentration for half-maximal inhibition (IC50) in assay [1] and in assay [2] were > 10000 nM and 100 nM, respectively.
As for `COc1cc(O)c2c(c1)/C=C/C[C@H](O)[C@H](O)C(=O)/C=C\C[C@H](C)OC2=O`, in assay [3], the ED50 result is “inactive”.
Turning to `C[C@@H]1/C=C\C(=O)[C@@H](O)[C@@H](O)C/C=C/c2cc(OCCn3ccnc3)cc(O)c2C(=O)O[C@H]1C`, the 50% effective dose (ED50) in assay [3] worked out at 6.5 mg/kg. The figures for the IC50 in assay [1] and in assay [2] were > 10000 nM and 15 nM, respectively.
Take `CC(=O)NCC(=O)COc1cc(O)c2c(c1)/C=C/C[C@H](O)[C@H](O)C(=O)/C=C\[C@@H](C)[C@H](C)OC2=O`: the values for the IC50 in assay [1] and in assay [2] were > 10000 nM and 31 nM, respectively.
For `CC(C)Oc1cc(O)c2c(c1)/C=C/C[C@H](O)[C@H](O)C(=O)/C=C\[C@@H](C)[C@H](C)OC2=O`, the IC50 is > 10000 nM in assay [1] and 687 nM in assay [2].
As to `C[C@@H]1/C=C\C(=O)[C@@H](O)[C@@H](O)C/C=C/c2cc(O)cc(O)c2C(=O)O[C@H]1C`, the IC50 in assay [1] was > 10000 nM; in assay [2] it was 515 nM.
The matching figures for `CC(=O)NCCOc1cc(O)c2c(c1)/C=C/C[C@H](O)[C@H](O)C(=O)/C=C\[C@@H](C)[C@H](C)OC2=O`: > 10000 nM and 65 nM.
As for `C[C@@H]1/C=C\C(=O)[C@@H](O)[C@@H](O)C/C=C/c2cc(OCCN3CCOCC3)cc(O)c2C(=O)O[C@H]1C`, the IC50 in assay [1] was > 10000 nM; in assay [2], 59 nM.
The matching figures for `C[C@@H]1/C=C\C(=O)[C@@H](O)[C@@H](O)C/C=C/c2cc(OCCN(C)C)cc(O)c2C(=O)O[C@H]1C`: > 10000 nM and 597 nM.
Taken in the same sequence, the figures for `C[C@@H]1/C=C\C(=O)[C@@H](O)[C@@H](O)C/C=C/c2cc(OCCn3ccnn3)cc(O)c2C(=O)O[C@H]1C` were > 10000 nM and 43 nM.
The matching figures for `C[C@@H]1/C=C\C(=O)[C@@H](O)[C@@H](O)C/C=C/c2cc(OCc3ccc(Cl)c(Cl)c3)cc(O)c2C(=O)O[C@H]1C`: > 10000 nM and 752 nM.
Turning to `CCCOc1cc(O)c2c(c1)/C=C/C[C@H](O)[C@H](O)C(=O)/C=C\[C@@H](C)[C@H](C)OC2=O`, the values for the IC50 in assay [1] and in assay [2] were > 10000 nM and 249 nM, respectively.
Take `C[C@@H]1/C=C\C(=O)[C@@H](O)[C@@H](O)C/C=C/c2cc(OCc3ccccc3)cc(O)c2C(=O)O[C@H]1C`: the IC50 in assay [1] was > 10000 nM; in assay [2], 319 nM.
Regarding `COc1cc(O)c2c(c1)/C=C/C[C@H](O)[C@H](O)C(=O)/C=C\[C@@H](C)[C@H](C)OC2=O`, the ED50 in assay [3] was 13.2 mg/kg. The figures for the IC50 in assay [1] and in assay [2] were > 10000 nM and 136 nM, respectively.
In the case of `C[C@@H]1/C=C\C(=O)[C@@H](O)[C@@H](O)C/C=C/c2cc(OCC(O)CO)cc(O)c2C(=O)O[C@H]1C` (some centres undefined), the IC50 in assay [1] was > 10000 nM; in assay [2], 383 nM.
The matching figures for `COc1ccc(COc2cc(O)c3c(c2)/C=C/C[C@H](O)[C@H](O)C(=O)/C=C\[C@@H](C)[C@H](C)OC3=O)cc1`: > 10000 nM and 168 nM.
Regarding `C[C@@H]1/C=C\C(=O)[C@@H](O)[C@@H](O)C/C=C/c2cc(OCCNc3ccccn3)cc(O)c2C(=O)O[C@H]1C`, the IC50 in assay [1] was > 10000 nM; in assay [2] it was 113 nM.
The matching figures for `COc1cc(O)c2c(c1)NC(=O)C[C@H](O)[C@H](O)C(=O)/C=C\[C@@H](C)[C@H](C)OC2=O`: > 10000 nM and 293 nM.
The matching figures for `COc1cc(O)c2c(c1)OCC[C@H](O)[C@H](O)C(=O)/C=C\[C@@H](C)[C@H](C)OC2=O`: > 10000 nM and 1680 nM.
The matching figures for `C[C@@H]1/C=C\C(=O)[C@@H](O)[C@@H](O)C/C=C/c2cc(OC(F)F)cc(O)c2C(=O)O[C@H]1C`: > 10000 nM and 615 nM.
In the case of `C[C@@H]1/C=C\C(=O)[C@@H](O)[C@@H](O)C/C=C/c2cc(OCCCS(C)(=O)=O)cc(O)c2C(=O)O[C@H]1C`, the ED50 in assay [3] amounted to 9.8 mg/kg. Further, the IC50 in assay [1] is > 10000 nM; in assay [2], 32 nM.

(Values after ChEMBL document CHEMBL1157801, “Discovery of an in vitro and in vivo potent resorcylic lactone analog of LL-Z1640-2 as anti-inflammatory lead, II” (Bioorg Med Chem Lett, 2010).)
